Reference: patent US8501755B2, “Tetrahydropyridothienopyrimidine compounds and methods of use thereof” (Bayer Intellectual Property GmbH, priority 2006, dated 2013)

What was measured:
Assay type in all cases: cell-based
N87 = experiment: In vitro tumor cell proliferation assay (Cell Titer-Glo) in N87 cells; settings: N87 human gastric carcinoma overexpressing HER2 and HER1; 72 hours exposure; read-out: IC50, activities in N87 cell lines
Text: (§1) The tumor cell proliferation assay used to test the compounds of the present invention involves a readout called Cell Titer-Glow® Luminescent Cell Viability Assay developed by Promega® (Cunningham, BA “A Growing Issue: Cell Proliferation Assays, Modern kits ease quantification of cell growth” The Scientist 2001, 15(13), 26, and Crouch, S P et al., “The use of ATP bioluminescence as a measure of cell proliferation and cytotoxicity” Journal of Immunological Methods 1993, 160, 81-88), that measures inhibition of cell proliferation. Generation of a luminescent signal corresponds to the amount of ATP present, which is directly proportional to the number of metabolically active (proliferating) cells. A431 cells [human epidermoid carcinoma, ATCC # HTB-20, overexpressing HER1 (EGFR, ErbB1)] and N87 [human gastric carcinoma, ATCC # CRL-1555, overexpressing HER2 (ErbB2) and HER1 (EGFR, ErbB1)] were plated at a density of 2.5×10^3 cells/well in 96 well black-clear bottom tissue culture plates in RPMI media with 10% Fetal Bovine Serum and incubated at 37° C. Twenty-four hours later, test compounds are added at a final concentration range from as high 100 μm to as low […] depend on the activities of the tested compounds in serial dilutions at a final DMSO concentration of 0.1%. Cells were incubated for 72 hours at 37° C. in complete growth media after addition of the test compound. After 72 hours of drug exposure, the plates were equilibrated to room temperature for approximately 30 min. Then, using a Promega Cell Titer Glo Luminescent® assay kit, lysis buffer containing 100 microliters of the enzyme luciferase and its substrate, luciferin mixture, was added to each well. The plates were mixed for 2 min on orbital shaker to ensure cell lysis and incubated for 10 min at room temperature to stabilize luminescence signal. The samples were read on VICTOR2 using Luminescence protocol, and analyzed with Analyze5 software to generate IC50 values.

A431 cells = experiment: In vitro tumor cell proliferation assay (Cell Titer-Glo) in A431 cells; settings: Homo sapiens, A-431, 72 h, A431 human epidermoid carcinoma overexpressing HER1; 72 hours exposure; read-out: IC50, activities in A431 cell lines
Text: as §1

H1975 cells = experiment: In vitro tumor cell proliferation assay (Cell Titer-Glo) in H1975 cells; settings: NCI-H1975; H1975 human NSCLC expressing mutant HER1 (L858R,T790M); 72 hours exposure; read-out: IC50, activities in H 1975 cell lines
Text: The tumor cell proliferation assay used to test the compounds of the present invention involves a readout called Cell Titer-Glow® Luminescent Cell Viability Assay developed by Promega® (Cunningham, BA “A Growing Issue: Cell Proliferation Assays, Modern kits ease quantification of cell growth” The Scientist 2001, 15(13), 26, and Crouch, S P et al., “The use of ATP bioluminescence as a measure of cell proliferation and cytotoxicity” Journal of Immunological Methods 1993, 160, 81-88), that measures inhibition of cell proliferation. Generation of a luminescent signal corresponds to the amount of ATP present, which is directly proportional to the number of metabolically active (proliferating) cells.
H1975 cells [human non small cell lung carcinoma, ATCC # CRL-5908, expressing mutant HER1 [(EGFR, ErbB1)(L858R,T790M] were plated at a density of 3×10^3 cells/well in 96 well black-clear bottom tissue culture plates in RPMI media with 10% Fetal Bovine Serum and incubated at 37° C. Twenty-four hours later, test compounds are added at a final concentration range from as high 10 uM to as low 64 pM depending on the activities of the tested compounds in serial dilutions at a final DMSO concentration of 0.1%. Cells were incubated for 72 hours at 37° C. in complete growth media after addition of the test compound. After 72 hours of drug exposure, the plates were equilibrated to room temperature for approximately 30 min. Then, using a Promega Cell Titer Glo Luminescent® assay kit, lysis buffer containing 100 microliters of the enzyme luciferase and its substrate, luciferin mixture, was added to each well. The plates were mixed for 2 min on orbital shaker to ensure cell lysis and incubated for 10 min at room temperature to stabilize luminescence signal. The samples were read on VICTOR2 using Luminescence protocol, and analyzed with Analyze5 software to generate IC50 values.

IC50 (N87) [nM] | IC50 (A431 cells) [nM] | IC50 (H1975 cells) [nM] | Compound
< 200 | < 200 | 200 to 1000 | O=C(/C=C/CN1CCOCC1)N1CCc2c(sc3ncnc(Nc4ccc(OCc5ccccn5)c(Cl)c4)c23)C1 [Example 1, 1-{4-[3-Chloro-4-(pyridin-2-ylmethoxy)-phenylamino]-5,8-dihydro-6H-9-thia-1,3,7 triaza-fluoren-7-yl}-4-morpholin-4-yl-but-2-en-1-one]
< 200 | < 200 | 1000 to 10000 | CCN(CC)C/C=C/C(=O)N1CCc2c(sc3ncnc(Nc4ccc(OCc5ccccn5)c(Cl)c4)c23)C1 [Example 2, N-[3-chloro-4-(pyridin-2-ylmethoxy)phenyl]-7-[(2E)-4-(diethylamino)but-2-enoyl]-5,6,7,8-tetrahydropyrido[4′,3′:4,5]thieno[2,3-d]pyrimidin-4-amine]
< 200 | < 200 | 200 to 1000 | CN(C)C/C=C/C(=O)N1CCc2c(sc3ncnc(Nc4ccc(OCc5ccccn5)c(Cl)c4)c23)C1 [Example 3, N-[3-chloro-4-(pyridin-2-ylmethoxy)phenyl]-7-[(2E)-4-(dimethylamino)but-2-enoyl]-5,6,7,8-tetrahydropyrido[4′,3′:4,5]thieno[2,3-d]pyrimidin-4-amine]
< 200 | < 200 | 200 to 1000 | O=C(/C=C/CN1CCCCC1)N1CCc2c(sc3ncnc(Nc4ccc(OCc5ccccn5)c(Cl)c4)c23)C1 [Example 4, N-[3-chloro-4-(pyridin-2-ylmethoxy)phenyl]-7-[(2E)-4-piperidin-1-ylbut-2-enoyl]-5,6,7,8-tetrahydropyrido[4′,3′:4,5]thieno[2,3-d]pyrimidin-4-amine]
< 200 | < 200 | 1000 to 10000 | CN1CCN(C/C=C/C(=O)N2CCc3c(sc4ncnc(Nc5ccc(OCc6ccccn6)c(Cl)c5)c34)C2)CC1 [Example 5, N-[3-chloro-4-(pyridin-2-ylmethoxy)phenyl]-7-[(2E)-4-(4-methylpiperazin-1-yl)but-2-enoyl]-5,6,7,8-tetrahydropyrido[4′,3′:4,5]thieno[2,3-d]pyrimidin-4-amine]
< 200 | < 200 | 1000 to 10000 | O=C(/C=C/CN1CCOCC1)N1CCc2c(sc3ncnc(Nc4ccc(F)c(Cl)c4)c23)C1 [Example 6, N-(3-chloro-4-fluorophenyl)-7-[(2E)-4-morpholin-4-ylbut-2-enoyl]-5,6,7,8-tetrahydropyrido[4′,3′:4,5]thieno[2,3-d]pyrimidin-4-amine]
< 200 | < 200 | 200 to 1000 | CN(C)C/C=C/C(=O)N1CCc2c(sc3ncnc(Nc4ccc(F)c(Cl)c4)c23)C1 [Example 7, N-(3-chloro-4-fluorophenyl)-7-[(2E)-4-(dimethylamino)but-2-enoyl]-5,6,7,8-tetrahydropyrido[4′,3′:4,5]thieno[2,3-d]pyrimidin-4-amine]
< 200 | 200 to 1000 | 1000 to 10000 | CN1CCN(C/C=C/C(=O)N2CCc3c(sc4ncnc(Nc5ccc(F)c(Cl)c5)c34)C2)CC1 [Example 8, N-(3-chloro-4-fluorophenyl)-7-[(2E)-4-(4-methylpiperazin-1-yl)but-2-enoyl]-5,6,7,8-tetrahydropyrido[4′,3′:4,5]thieno[2,3-d]pyrimidin-4-amine]
< 200 | < 200 | 1000 to 10000 | CCN(CC)C/C=C/C(=O)N1CCc2c(sc3ncnc(Nc4ccc(F)c(Cl)c4)c23)C1 [Example 9, N-(3-chloro-4-fluorophenyl)-7-[(2E)-4-(diethylamino)but-2-enoyl]-5,6,7,8-tetrahydropyrido[4′,3′:4,5]thieno[2,3-d]pyrimidin-4-amine]
< 200 | < 200 | 1000 to 10000 | O=C(/C=C/CN1CCOCC1)N1CCc2c(sc3ncnc(Nc4ccc(OCc5cccc(F)c5)c(Cl)c4)c23)C1 [Example 10, N-{3-chloro-4-[(3-fluorobenzyl)oxy]phenyl}-7-[(2E)-4-morpholin-4-ylbut-2-enoyl]-5,6,7,8-tetrahydropyrido[4′,3′:4,5]thieno[2,3-d]pyrimidin-4-amine]
< 200 | < 200 |  | C#Cc1cccc(Nc2ncnc3sc4c(c23)CCN(C(=O)/C=C/CN2CCN(C)CC2)C4)c1 [Example 18, N-(3-ethynylphenyl)-7-[(2E)-4-(4-methylpiperazin-1-yl)but-2-enoyl]-5,6,7,8-tetrahydropyrido [4′,3′:4,5]thieno[2,3-d]pyrimidin-4-amine]
 | 1000 to 10000 | 1000 to 10000 | O=C(/C=C/Cn1ccnc1)N1CCc2c(sc3ncnc(Nc4ccc(F)c(Cl)c4)c23)C1 [Example 34, N-(3-chloro-4-fluorophenyl)-7-[(2E)-4-(1H-imidazol-1-yl)but-2-enoyl]-5,6,7,8-tetrahydropyrido [4′,3′:4,5]thieno[2,3-d]pyrimidin-4-amine]
< 200 |  | < 200 | CC(C)N(C)C/C=C/C(=O)N1CCc2c(sc3ncnc(Nc4ccc(F)c(Cl)c4)c23)C1 [Example 36, N-(3-chloro-4-fluorophenyl)-7-{(2E)-4-[isopropyl(methyl)amino]but-2-enoyl}-5,6,7,8-tetrahydropyrido[4′,3′:4,5]thieno[2,3-d]pyrimidin-4-amine]
< 200 |  | 200 to 1000 | CN(C/C=C/C(=O)N1CCc2c(sc3ncnc(Nc4ccc(F)c(Cl)c4)c23)C1)C(C)(C)C [Example 55, 7-{(2E)-4-[tert-butyl(methyl)amino]but-2-enoyl}-N-(3-chloro-4-fluorophenyl)-5,6,7,8-tetrahydropyrido [4′,3′:4,5]thieno[2,3-d]pyrimidin-4-amine]
< 200 | 200 to 1000 |  | O=C(/C=C/CN1CCOCC1)N1CCc2c(sc3ncnc(Nc4ccc5c(ccn5Cc5ccccn5)c4)c23)C1 [Example 120, 7-[(2E)-4-morpholin-4-ylbut-2-enoyl]-N-[1-(pyridin-2-ylmethyl)-1H-indol-5-yl]-5,6,7,8-tetrahydropyrido [4′,3′:4,5]thieno[2,3-d]pyrimidin-4-amine]
< 200 |  |  | CN(C/C=C/C(=O)N1CCc2c(sc3ncnc(Nc4ccc5c(ccn5Cc5ccccc5)c4)c23)C1)C(C)(C)C [Example 131, N-(1-benzyl-1H-indol-5-yl)-7-{(2E)-4-[tert-butyl(methyl)amino]but-2-enoyl}-5,6,7,8-tetrahydropyrido [4′,3′:4,5]thieno[2,3-d]pyrimidin-4-amine]
< 200 | 1000 to 10000 |  | O=C(C#CCN1CCOCC1)N1CCc2c(sc3ncnc(Nc4ccc(F)c(Cl)c4)c23)C1 [Example 137, N-(3-chloro-4-fluorophenyl)-7-(4-morpholin-4-ylbut-2-ynoyl)-5,6,7,8-tetrahydropyrido [4′,3′:4,5]thieno[2,3-d]pyrimidin-4-amine]
< 200 | 200 to 1000 |  | C#Cc1cccc(Nc2ncnc3sc4c(c23)CCN(C(=O)C#CCN2CCOCC2)C4)c1 [Example 138, N-(3-ethynylphenyl)-7-(4-morpholin-4-ylbut-2-ynoyl)-5,6,7,8-tetrahydropyrido [4′,3′:4,5]thieno[2,3-d]pyrimidin-4-amine]
< 200 |  |  | CC1CCCCN1C/C=C/C(=O)N1CCc2c(sc3ncnc(Nc4ccc(Cl)c(Cl)c4)c23)C1 (stereo not shown) [Example 210, N-(3,4-dichlorophenyl)-7-[(2E)-4-(2-methylpiperidin-1-yl)but-2-enoyl]-5,6,7,8-tetrahydropyrido [4′,3′:4,5]thieno[2,3-d]pyrimidin-4-amine]
